Tests used:
CYP2D6 = molecular target: T1, CYP2D6 (Homo sapiens, UniProt P10635); assay: Substrate depletion with recombinant CYP2D6; type: in vitro ADME
T1 construct: host or cells: insect cells (membranes)
Method: (§1) Relative CYP activities were determined from the ratio of the depletion rate constant for each isoform relative to that for CYP3A4. […] Eight 100 μL aliquots each were removed over a period of 70 to 90 minutes and added to 100 μL of a 0.1 μM solution of an internal standard in methanol to quench the enzymatic reaction. The samples were filtered through a high protein-binding capacity filter membrane in a 96-well format. The filtrates were evaporated in a vacuum centrifuge to near dryness, diluted with 125 μL of water, and a 99 μL aliquot was analyzed by reversed phase chromatography/mass spectrometry using selected reaction monitoring. Rate constants were determined from the semi-logarithmic plots of the time versus ratio of the area under the peak for specific transitions of the various substrates and the internal standard. The intrinsic clearance isotope effect was determined from the ratio of the rate constants for the protio- and respective deuterio- forms.

CYP1A2 = molecular target: T2, CYP1A2 (Homo sapiens, UniProt P05177); assay: Substrate depletion with recombinant CYP1A2; type: in vitro ADME; details: for kobs: recombinant CYP1A2, substrate depletion at 1.0 μM, 10 pmol/mL rCYP, 37 °C
T2 construct: host or cells: insect cells (membranes)
T2 sequence (P05177 2-516 limits assumed): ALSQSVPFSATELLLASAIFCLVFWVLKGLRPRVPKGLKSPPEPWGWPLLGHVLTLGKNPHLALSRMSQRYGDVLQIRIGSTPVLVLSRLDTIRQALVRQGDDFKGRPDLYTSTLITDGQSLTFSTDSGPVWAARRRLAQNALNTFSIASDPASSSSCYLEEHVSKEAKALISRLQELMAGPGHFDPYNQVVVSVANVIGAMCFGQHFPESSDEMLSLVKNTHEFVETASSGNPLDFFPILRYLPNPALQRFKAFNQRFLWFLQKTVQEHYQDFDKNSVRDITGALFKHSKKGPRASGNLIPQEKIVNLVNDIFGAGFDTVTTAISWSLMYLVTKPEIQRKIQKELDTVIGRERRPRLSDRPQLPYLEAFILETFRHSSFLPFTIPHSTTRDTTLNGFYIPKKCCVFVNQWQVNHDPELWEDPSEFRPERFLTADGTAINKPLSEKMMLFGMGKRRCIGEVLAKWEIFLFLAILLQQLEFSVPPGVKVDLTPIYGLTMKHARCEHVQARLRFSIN
Method: as §1

CYP2C19 = molecular target: T3, CYP2C19 (Homo sapiens, UniProt P33261); assay: Substrate depletion with recombinant CYP2C19; type: in vitro ADME; details: for kobs: recombinant CYP2C19, substrate depletion at 1.0 μM, 10 pmol/mL rCYP, 37 °C
T3 construct: host or cells: insect cells (membranes)
T3 sequence (P33261 whole entry): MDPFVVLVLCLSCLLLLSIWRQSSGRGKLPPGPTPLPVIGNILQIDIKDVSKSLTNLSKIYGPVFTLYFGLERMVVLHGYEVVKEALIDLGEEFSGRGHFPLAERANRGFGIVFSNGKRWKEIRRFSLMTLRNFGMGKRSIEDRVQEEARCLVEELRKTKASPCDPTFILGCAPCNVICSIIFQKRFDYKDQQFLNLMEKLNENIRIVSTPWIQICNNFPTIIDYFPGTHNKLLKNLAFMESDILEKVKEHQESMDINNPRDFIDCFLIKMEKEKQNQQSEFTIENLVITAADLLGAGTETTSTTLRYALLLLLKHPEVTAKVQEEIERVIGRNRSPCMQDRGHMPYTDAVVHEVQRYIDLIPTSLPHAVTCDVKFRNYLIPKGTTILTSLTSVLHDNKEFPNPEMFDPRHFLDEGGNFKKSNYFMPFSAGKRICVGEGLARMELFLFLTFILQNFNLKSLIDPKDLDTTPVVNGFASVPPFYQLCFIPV
Method: as §1

CYP2C9 = molecular target: T4, CYP2C9 (Homo sapiens, UniProt P11712); assay: Substrate depletion with recombinant CYP2C9; type: in vitro ADME
T4 construct: host or cells: insect cells (membranes)
T4 sequence (P11712 whole entry): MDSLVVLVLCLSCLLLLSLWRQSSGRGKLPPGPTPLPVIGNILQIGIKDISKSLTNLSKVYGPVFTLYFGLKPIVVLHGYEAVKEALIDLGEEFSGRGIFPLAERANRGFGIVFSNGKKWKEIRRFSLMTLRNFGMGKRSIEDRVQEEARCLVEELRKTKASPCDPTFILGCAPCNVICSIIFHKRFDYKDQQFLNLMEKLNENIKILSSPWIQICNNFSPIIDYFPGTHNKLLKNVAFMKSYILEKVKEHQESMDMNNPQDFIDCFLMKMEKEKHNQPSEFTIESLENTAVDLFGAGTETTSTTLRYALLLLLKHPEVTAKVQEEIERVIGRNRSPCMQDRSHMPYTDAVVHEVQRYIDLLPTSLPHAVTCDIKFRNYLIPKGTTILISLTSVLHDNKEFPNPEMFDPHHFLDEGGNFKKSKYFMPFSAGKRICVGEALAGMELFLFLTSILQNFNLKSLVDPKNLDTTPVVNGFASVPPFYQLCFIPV
Method: as §1

CYP2C8 = molecular target: T5, CYP2C8 (Homo sapiens, UniProt P10632); assay: Substrate depletion with recombinant CYP2C8; type: in vitro ADME; details: for As % of CYP3A4: recombinant CYP2C8, depletion rate constant relative to CYP3A4
T5 construct: host or cells: insect cells (membranes)
T5 sequence (P10632 1-490): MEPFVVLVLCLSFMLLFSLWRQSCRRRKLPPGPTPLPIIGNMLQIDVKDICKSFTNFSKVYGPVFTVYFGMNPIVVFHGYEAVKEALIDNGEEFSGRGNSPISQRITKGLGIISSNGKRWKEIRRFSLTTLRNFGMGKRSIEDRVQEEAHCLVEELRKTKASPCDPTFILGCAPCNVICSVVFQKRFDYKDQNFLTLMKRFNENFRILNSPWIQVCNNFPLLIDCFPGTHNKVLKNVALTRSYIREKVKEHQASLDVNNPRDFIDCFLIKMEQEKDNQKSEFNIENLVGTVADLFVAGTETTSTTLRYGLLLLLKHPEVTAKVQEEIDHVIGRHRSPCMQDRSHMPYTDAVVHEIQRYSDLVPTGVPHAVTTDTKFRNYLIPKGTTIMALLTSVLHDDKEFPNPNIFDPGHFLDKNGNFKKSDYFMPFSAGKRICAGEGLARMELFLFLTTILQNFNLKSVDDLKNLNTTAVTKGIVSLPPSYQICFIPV
Method: as §1

[1] = Estimation of Km by the substrate depletion method; type: in vitro ADME; details: human, pH 7.4
Method: as §1

CYP3A4 = molecular target: T6, CYP3A4 (Homo sapiens, UniProt P08684); type: in vitro ADME; details: 1 μM, pH 7.4
T6 construct: host or cells: insect cells (membranes)
T6 sequence (P08684 2-503 limits assumed): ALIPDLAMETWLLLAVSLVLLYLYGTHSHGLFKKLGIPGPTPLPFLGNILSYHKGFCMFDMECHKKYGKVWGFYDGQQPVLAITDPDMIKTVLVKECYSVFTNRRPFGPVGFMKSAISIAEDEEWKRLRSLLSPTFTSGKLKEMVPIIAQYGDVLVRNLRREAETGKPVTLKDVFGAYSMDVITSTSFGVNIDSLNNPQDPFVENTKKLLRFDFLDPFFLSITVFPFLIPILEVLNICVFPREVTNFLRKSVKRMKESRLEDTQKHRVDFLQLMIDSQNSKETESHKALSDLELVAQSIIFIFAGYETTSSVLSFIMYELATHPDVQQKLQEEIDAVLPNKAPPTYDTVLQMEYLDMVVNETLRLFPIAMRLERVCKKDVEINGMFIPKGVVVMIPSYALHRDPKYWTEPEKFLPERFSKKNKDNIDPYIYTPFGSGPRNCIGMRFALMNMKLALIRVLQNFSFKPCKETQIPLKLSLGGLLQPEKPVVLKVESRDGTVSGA
Method: as §1

T1 sequence (P10635 whole entry): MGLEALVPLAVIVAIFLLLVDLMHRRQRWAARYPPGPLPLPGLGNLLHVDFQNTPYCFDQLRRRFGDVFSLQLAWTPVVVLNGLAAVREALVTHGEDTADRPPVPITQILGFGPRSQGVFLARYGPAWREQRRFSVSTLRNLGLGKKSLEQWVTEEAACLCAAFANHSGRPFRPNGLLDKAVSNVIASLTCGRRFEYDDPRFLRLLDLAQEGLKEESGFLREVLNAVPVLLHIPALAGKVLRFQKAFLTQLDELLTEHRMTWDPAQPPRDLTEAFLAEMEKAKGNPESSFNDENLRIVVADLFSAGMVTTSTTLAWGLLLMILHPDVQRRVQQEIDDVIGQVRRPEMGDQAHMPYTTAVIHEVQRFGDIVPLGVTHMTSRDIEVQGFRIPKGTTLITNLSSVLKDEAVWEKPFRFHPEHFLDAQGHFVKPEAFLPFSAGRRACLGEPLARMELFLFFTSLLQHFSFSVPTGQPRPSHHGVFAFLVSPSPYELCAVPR

kobs (CYP2D6; recombinant CYP2D6, substrate depletion at 1.0 μM, 10 pmol/mL rCYP, 37 °C) [min⁻¹]	kobs (CYP1A2) [min⁻¹]	kobs (CYP2C19) [min⁻¹]	kobs (CYP2C9; recombinant CYP2C9, substrate depletion at 1.0 μM, 10 pmol/mL rCYP, 37 °C) [min⁻¹]	As % of CYP3A4 (CYP2C8) [%]	kobs (CYP2C8; recombinant CYP2C8, substrate depletion at 1.0 μM, 10 pmol/mL rCYP, 37 °C) [min⁻¹]	Km [1] [µM]	melting point [°C]	As % of CYP3A4 (CYP2D6; recombinant CYP2D6, depletion rate constant relative to CYP3A4) [%]	As % of CYP3A4 (CYP1A2; recombinant CYP1A2, depletion rate constant relative to CYP3A4) [%]	As % of CYP3A4 (CYP2C19; recombinant CYP2C19, depletion rate constant relative to CYP3A4) [%]	kobs (CYP3A4) [min⁻¹]	As % of CYP3A4 (CYP3A4; recombinant enzyme) [%]	As % of CYP3A4 (CYP2C9; recombinant CYP2C9, depletion rate constant relative to CYP3A4) [%]	Compound
0.015	0.009	0.071	0.050	0	0.001	> 5	132 to 133	–	–	–	–	–	–	CCNc1nc2c(c(C(N)=O)n1)CN(C(=O)CCc1ccc(OC(F)(F)F)cc1)CC2 [Compound 1a]
–	<0.001	0.014	–	0	–	> 5	–	0	0	24	0.059	100	0	COc1cccc(-n2nnc(C3CC3)c2C(=O)N(C)c2ccc(C#N)cc2)c1 [Compound 2a]

— paper PMC6235261, “Deuterium isotope effects in drug pharmacokinetics II: Substrate-dependence of the reaction mechanism influences outcome for cytochrome P450 cleared drugs” (PLoS ONE, 2018)
